Columns and labels:
recombinant human ATase = target: T1, recombinant human ATase (Homo sapiens, UniProt P16455); assay: In vitro ATase inactivation assay (incubation with inactivators and ATase assay); format: biochemical; conditions: recombinant human ATase, standard conditions
T1 construct: made in house
T1 sequence (P16455 1-207): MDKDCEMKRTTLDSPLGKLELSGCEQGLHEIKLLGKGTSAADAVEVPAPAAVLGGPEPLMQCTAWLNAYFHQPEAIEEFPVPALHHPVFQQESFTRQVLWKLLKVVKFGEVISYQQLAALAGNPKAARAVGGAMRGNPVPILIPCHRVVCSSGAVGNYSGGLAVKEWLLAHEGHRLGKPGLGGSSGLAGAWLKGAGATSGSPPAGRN
Protocol: The cDNA cloning and overexpression of the human ATase has been reported previously^23. Purification of the recombinant proteins was achieved either by affinity chromatography through a DNA-cellulose column as described by Wilkinson et al.,^25, 26 or by DEAE-cellulose ion-exchange chromatography. For the latter, the ATase protein was partially purified by ammonium sulphate precipitation (30-60%) and dialysed against 10 mM Tris-HCl pH 7.5, 1 mM DTT, 2 mM EDTA, 10% glycerol, before loading on a DEAE-cellulose column. The ATase was then eluted with a 0-0.1 M NaCl gradient.
Compounds to be tested were dissolved in DMSO to a final concentration of 10 mM and diluted just before use in buffer I containing 1 mg/ml bovine serum albumin (IBSA). Recombinant ATase was diluted in IBSA and titrated in order that the reaction be conducted under ATase, and not substrate, limiting conditions. […] Following acid hydrolysis of the DNA as previously described^21 the [^3 H]-methylated protein was recovered and quantitated by liquid scintillation counting. Samples were typically assayed in duplicate and experiments repeated several times. I50 is the concentration of inactivator required to produce a 50% reduction in ATase activity.

[1] = Sensitivity of mammalian cells to the inactivators alone: V79 cells; format: cell-based, Chinese hamster; conditions: hamster, v79 cells; FIG. 5; read-out: growth inhibitory dose in V79 cells relative to I50 dose
Protocol: (§1) In order to assess the effects on cell growth alone, Xeroderma pigmentosum cells and Chinese Hamster V79 cells were exposed to increasing concentrations (up to 600 μM) of selected inactivators for 2 h at 37°. In some cases, the inactivators were allowed to undergo hydrolysis at 37° C. for 20 hours and then added to Raji cells in order to assess the extent to which the decomposition products of the agents might inhibit cell growth. After 6 days the extent of cell growth was determined as described above.

[2] = test system: Chinese Hamster V79 cells; assay: as above; format: cell-based
Protocol: as §1

[3] = Sensitivity of mammalian cells to the inactivators alone: XP cells; format: cell-based, human; conditions: human, xp cells; FIG. 6; read-out: dose required for growth inhibition relative to that required for ATase inactivation
Protocol: as §1

[4] = test system: Xeroderma pigmentosum cells; assay: as above; format: cell-based, human; conditions: inactivator alone (FIG. 6)
Protocol: as §1

ATase = assay: Inactivation of ATase in mammalian cells, summary over human, rat and Chinese hamster cell lines; format: cell-based; conditions: Table 5
Protocol: Mammalian cells were cultured under standard conditions. For example, Raji (a human lymphoblastoid cell line from a Burkitt's lymphoma) cells were grown in suspension culture in RPMI medium supplemented with 10% horse serum. […]
Cells were diluted to 10^6 /ml in culture medium containing either the appropriate concentration of inactivator or an equivalent volume of vehicle (DMSO). […] ATase activity was determined as described above, in duplicate sonicated cell extracts and expressed as the, percentage activity remaining based on that present in the untreated controls (for example 350-450 fm/mg in Raji cells).

With `Nc1nc(OCc2ccco2)c2nc[nH]c2n1` [B.4203, 0^6 -furfurylguanine] the “ATase inactivation in vitro, result in words” value (recombinant human ATase) was “not as effective as BeG”, the selectivity ratio [1] was ≥ 100 and the “toxic concentration in V79 cells relative to concentration sensitizing to BCNU” value ([2]; FIGS. 5 & 6) was “at least 100 times”. The “dose producing some growth inhibition of V79 cells” value ([2]; inactivator alone, 2 h (FIG. 5)) was > 100 µM, the “growth inhibition / toxicity to V79 cells, in words” value ([2]; inactivator alone, up to 600 μM) was “toxic” and the selectivity ratio [3] was ≥ 100. The “growth inhibition / toxicity to XP cells, in words” value [4] was “toxic” and the “effectiveness relative to BeG in the cell lines used” value (ATase) was “up to 7 times”.
